Measurements: US8110599B2 (priority 2006, dated 2012)
In brackets after ≈: the same amount, converted by molar mass. Read-outs that look alike come from different tables or passages of the source.

Experiments:
[1] = system: S180 carcinoma
Procedure: S-180 cells were inoculated subcutaneously to mice at the axillary region at 0.5-1×10^6 cells/mouse. […] The drugs were given 6-8 times in total, one day spaced between two administrations for all the experiments. At the end of experiments, the tumors were removed and weighed, and the tumor inhibition ratio (TIR) was calculated. Pharmaceutical efficacy was considered with TIR≧40% and P<0.05, after statistical analysis.
The prepared solution was filtered through 0.45 and 0.22 μm membrane for sterilization, divided into stock aliquots, and stored at 4° C. for future use. The stock aliquot was further diluted with sterilized PBS (pH=7.4) to the required concentration before drug administration.
5-FU, CTX, and carboplatin solutions were freshly prepared in normal saline before use. […] Mice with the same sex were used in any individual experiment.
S180 cell line was from S180 bearing mice, and was intraperitoneally passaged in Kunming mouse.
Carcinoma inoculation and drug treatment: To each mouse, 0.2 ml of the S180 and H22 cell suspensions (2.5×10^6 cells/ml) were subcutaneously injected into the right axillary region (a total of 5×10^5 cells per mouse), respectively. On the second day, the animals were grouped at random and drugs were administered accordingly. […] The drugs were given once every other day with a total of 6-8 treatments.
Determination of tumor weight and calculation of TIR (tumor inhibition ratio), were as follows. Body weight was recorded on the day after the last drug administration and animals were then sacrificed. The carcinoma was removed and weighed, and TIR (%) was calculated according the following formula: […]

[2] = Solubility and solution stability; type: physicochemical; conditions: pure AMP, white powder
[3] = system: human leukemia K562 cells; assay: MTT assay, in vitro killing of K562 cells; type: cell-based; conditions: for IC50: Homo sapiens
Procedure: (1) AMP Na: An AMP-Na solution was prepared according to the method of Example 1 at an AMP:Na2CO3 ratio (w/w) of 5:3, which was then diluted 10 times with PBS (pH 6.5) to obtain the AMP-Na stock solution. The stock solution was further diluted by PBS (pH 7.4) to the concentration for cell exposure.
All the drug solutions described above were freshly prepared before use, and the final concentration for cell exposure was 100, 50, 25, 12.5, and 6.25 μg/ml, respectively.
K562 cells were cultured in RPMI1640 culture media supplemented with 10% calf serum, 100 U/ml of penicillin and streptomycin.
1. K562 cells at their log growth period were collected and centrifuged at 1,000 rpm for 5 minutes. The supernatant was discarded, and the cell density was adjusted to 1×10^5 cells/ml with RPMI 1640 cell culture media.
2. Ten microliter of the drug solution at various concentrations and 90 μl of the cell suspension or cell culture media were added to each well of the 96-well plate, followed by incubation in a CO2 incubator.
3. Cells were cultured for another 48-hour or 72-hour. Ten microliter of the MTT solution was added to per well 4 hours before the end of the experiment. Then, the solution was discarded and 100 μl of 10% SDS was added for termination of the experiment.
4. The absorbance of the solution was measured at 570 nm using a plate reader after being shaken on a shaker for 10 minutes. Results were printed out and recorded.
The inhibition ratio (%) was calculated from the following equation: […]
IC50 was calculated by linear regression of drug concentration v.s. cell inhibition ratio.

[4] = in vivo; conditions: both, Kunming, mouse
Procedure: Major organs of dead animals were removed, fixed, and subject to pathological study. […] Normal saline (36.25 ml) and 37% HCl (0.75 ml) were added to obtained the AMP stock solution with a concentration of 50 mg/ml and pH of 7.3 (concentrations of solvents including PEG 400, propanediol, and ethanol were 0.03, 0.0445, and 0.015 g/ml, respectively). […] The stock solution was further diluted in normal saline to the required concentration, and was i.v. or i.p. administered to mice at 0.2 ml/10 g bodyweight.
Both male and female Kuming mice of SPF grade, weighing 18-22 g, were used in the experiment. […] All data were analyzed by DAS software.

[5] = carboplatin experiment, carboplatin 25 mg/kg, ip alone

## O=c1[nH]cc(F)c(=O)[nH]1 [5-FU, reference compound]
[1]; 5-FU experiment, 5-FU 20 mg/kg, ip alone
  TIR (%): 45.55%
[1]; 5-FU experiment, 5-FU 20 mg/kg, ip alone, 11 days before sacrifice
  Tumor weight (g) (X ± SD): 1.08 ± 0.60 g

## O=C1c2c(O)cc(O)cc2O[C@H](c2cc(O)c(O)c(O)c2)[C@H]1O [AMP-DMSO, AMPelopsin, reference compound]
[2]
  Solubility in water: does not dissolve
[3]; K562, 72 h
  IC50: 4.09 µg/mL (≈ 12.8 µM)
[3]; K562, after drug exposure for 48 h and 72 h
  IC50: 32.3 µg/mL (≈ 101 µM)
[3]; K562, cell treatment for 48 h
  IC50: 32.3 µg/mL (≈ 101 µM)
[4]
  LD50 at 7 day: 1000 mg/kg
[4]; iv
  LD50 at 7 day: 1000 mg/kg

## O.O.O.O.O.O=C1c2c(O)cc([O-])cc2OC(c2cc([O-])c(O)c([O-])c2)C1[O-].[Na+].[Na+].[Na+].[Na+] (stereo not shown) [AMP-Na, pentahydrate of the AMPelopsin unsaturated sodium salt]
[3]; 48 h
  IC50 in killing K562 cells: 29.56 µg/mL
[3]; 48 h and 72 h
  Killing effects towards K562 cells, AMP-Na compared with AMP-DMSO: no significant difference
[3]; 72 h
  IC50 in killing K562 cells: 4.23 µg/mL
[3]; after drug exposure for 48 h and 72 h
  IC50 in killing K562 cells: 29.56 µg/mL
[1]; 5-FU experiment, AMP-Na 50 mg/kg, ip, alone or jointly with 5-FU
  TIR (%): 4.43%
[1]; 5-FU experiment, AMP-Na 50 mg/kg, ip, alone or jointly with 5-FU, 11 days
  Tumor weight (g) (X ± SD): 1.89 ± 0.75 g
[1]; 5-FU experiment, AMP-Na 75 mg/kg, ip, alone or jointly with 5-FU
  TIR (%): 31.28%
[1]; 5-FU experiment, AMP-Na 75 mg/kg, ip, alone or jointly with 5-FU, 11 days
  Tumor weight (g) (X ± SD): 1.36 ± 0.69 g
[1]; 5-FU experiment, AMP-Na 112 mg/kg, ip, alone or jointly with 5-FU, 11 days
  Tumor weight (g) (X ± SD): 1.32 ± 0.78 g
[1]; 5-FU experiment, AMP-Na 112 mg/kg, ip, alone or jointly with 5-FU, sodium salt
  TIR (%): 33.49%
[1]; 5-FU experiment, AMP-Na 167 mg/kg, ip, alone or jointly with 5-FU
  TIR (%): 4.45%
[1]; 5-FU experiment, AMP-Na 167 mg/kg, ip, alone or jointly with 5-FU, 11 days
  Tumor weight (g) (X ± SD): 1.89 ± 0.59 g
[1]; CTX experiment, AMP-Na 50 mg/kg, ip, alone or jointly with CTX
  T1R (%): 7.66%
[1]; CTX experiment, AMP-Na 50 mg/kg, ip, alone or jointly with CTX, 12 days
  Tumor weight (g) (X ± SD): 1.66 ± 0.84 g
[1]; CTX experiment, AMP-Na 75 mg/kg, ip, alone or jointly with CTX
  T1R (%): 6.84%
[1]; CTX experiment, AMP-Na 75 mg/kg, ip, alone or jointly with CTX, 12 days
  Tumor weight (g) (X ± SD): 1.67 ± 1.03 g
[1]; CTX experiment, AMP-Na 112 mg/kg, ip, alone or jointly with CTX
  T1R (%): −3.86%
[1]; CTX experiment, AMP-Na 112 mg/kg, ip, alone or jointly with CTX, 12 days
  Tumor weight (g) (X ± SD): 1.86 ± 1.21 g
[1]; CTX experiment, AMP-Na 167 mg/kg, ip, alone or jointly with CTX
  T1R (%): −16.25%
[1]; CTX experiment, AMP-Na 167 mg/kg, ip, alone or jointly with CTX, 12 days
  Tumor weight (g) (X ± SD): 2.08 ± 1.07 g
[1]; carboplatin experiment, AMP-Na 50 mg/kg, ip, alone or jointly with carboplatin
  TIR (%): 23.22%
[1]; carboplatin experiment, AMP-Na 50 mg/kg, ip, alone or jointly with carboplatin, 10 days
  Tumor weight (g) (X ± SD): 1.12 ± 0.30 g
[1]; carboplatin experiment, AMP-Na 75 mg/kg, ip, alone or jointly with carboplatin
  TIR (%): 3.99%
[1]; carboplatin experiment, AMP-Na 75 mg/kg, ip, alone or jointly with carboplatin, 10 days
  Tumor weight (g) (X ± SD): 1.40 ± 0.58 g
[1]; carboplatin experiment, AMP-Na 112 mg/kg, ip, alone or jointly with carboplatin
  TIR (%): 13.87%
[1]; carboplatin experiment, AMP-Na 112 mg/kg, ip, alone or jointly with carboplatin, 10 days
  Tumor weight (g) (X ± SD): 1.26 ± 0.69 g
[1]; carboplatin experiment, AMP-Na 167 mg/kg, ip, alone or jointly with carboplatin
  TIR (%): −7.47%
[1]; carboplatin experiment, AMP-Na 167 mg/kg, ip, alone or jointly with carboplatin, 10 days
  Tumor weight (g) (X ± SD): 1.57 ± 0.71 g
[1]; single administration, S-180 bearing mice
  Tumor suppression, AMP-Na alone: no or weak tumor suppression

## N.N.O=C([O-])C1(C(=O)[O-])CCC1.[Pt+2] [carboplatin, reference compound]
[1]; [5]
  Body weight (g) after: 18.57/25.75 g
  TIR (%): 49.52%
[1]; carboplatin experiment, carboplatin 25 mg/kg, ip alone, 10 days before sacrifice
  Tumor weight (g) (X ± SD): 0.74 ± 0.28 g
